In patent US20180078615A1, “USE OF CCL2 TO INHIBIT ABNORMAL UTERINE BLEEDING” (UNIVERSITY OF SOUTH FLORIDA, priority 2015, published 2018):
Entries after “also recorded” stand apart in the source; their conditions may differ.

How the values were obtained:
VSMCs [1] = assay: VSMC apoptosis assay (ELISA, cleaved caspase-3 immunostaining, nuclear fragmentation); type: cell-based, human; conditions: 10^−7 M, 48 h, vs control
Description: (§1) VSMCs were grown in 96-well plates or 8-well chamber slides and incubated with 10^−7 M of MPA (Sigma-Aldrich) or ETO (Organon) or P4 (Sigma-Aldrich) or vehicle±rCCL2 (R&D Systems)±STAT1 inhibitor, 5′-methyl-thioadenosine (MTA; EMD Millipore) (19) for 48 or 72 h. VSMCs were then analyzed for apoptosis by an ELISA based apoptosis kit (Roche) or cleaved-caspase 3 immunostaining. VSMC proliferation was measured by BrdU incorporation Kit (Cell Signaling). (See further details in SI Materials and Methods).
This assay detects late-stage apoptosis by quantifying specific mono- and oligonucleosomes in the cytoplasmic fraction of cell lysates using mouse monoclonal antibodies directed against DNA and histones. In late-stage apoptosis (following nuclear fragmentation), cell cytoplasm contains mono- and oligonucleosomes, absent in normal (nonapoptotic) cells. The nucleosomes contained in the sample bind via their histone component to the immobilized antihistone antibody. Anti-DNA peroxidase reacts with the DNA part in the nucleosome. After removal of unbound peroxidase conjugate, the amount of peroxidase retained in the immunocomplex is detected by measuring colorimetric reaction.
Apoptosis index was determined in a second set of experiments. VSMC cultures (10,000 cells per wells) were incubated in 96-well plates with the treatments described above, at room temperature. Briefly, at the end of 48- or 72-h incubation periods, cells were washed three times in ice-cold PBS and cell lysate prepared by incubating each well in 200-μL lysis buffer for 30 min, followed by centrifugation at 200×g for 10 min. Duplicate 20-μL supernatant of cytoplasmic fractions from each treatment were carefully pipetted into streptavidin-coated microplates. A 20-μL VSMC culture supernatant devoid of cell fractions was used as a negative control, and 1-, 5-, 10-, and 20-μL supernatants containing camptothecin-induced apoptotic cell fractions were used as positive controls (ELISA based cell death detection kit^plus, Roche Applied Science). Incubation buffer was used as background control (Roche Applied Science). Then, each well was brought to 100 μL by adding immunoreagent (peroxidase-conjugated anti-DNA complex) and incubated by gentle shaking (300 rpm) for 2 h. […] The immunoreaction was stopped with 100 μL ABTS Stop Solution and measured at 405 nm against 100 μL ABTS solution+100 μL ABTS stop solution as a blank (reference wavelength 490 nm) using Spectra Max190 microplate reader (Molecular Devices). […]
The first set of eight-well chamber slides was processed for cleaved caspase-3 immunocytochemistry. […] Cleaved caspase-3 immunoreactivity in groups was then evaluated as described for αSMA in the HSOCRE section. […]

VSMCs [2] = assay: VSMC proliferation assay by BrdU incorporation; type: cell-based, human; conditions: 10^−7 M, 48-h treatment, mean±SEM; control 0.81±0.03
Description: as §1
VSMCs were thawed and cultured in T-75 cell culture flasks in medium 231 (M231; Life Technologies) with smooth muscle growth supplement (5% FBS; 2 ng/mL human basic fibroblast growth factor, 0.5 ng/mL human epidermal growth factor, 5 ng/mL heparin, 0.2 μg/mL insulin and 5 μg/mL BSA; Life Technologies) with 100 U/mL penicillin, 100 μg/mL streptomycin, and 0.25 μg/mL fungizone. Confluent VSMCs were washed twice with 1×PBS to remove residual serum, and then passaged (5,000 cells per well) in 96-well plates and incubated in parallel in M231 with 1% charcoal striped FBS with 0.1% ethanol (vehicle, control), 10^−7 M MPA (Sigma-Aldrich), 10^−7 M ETO (Organon), or 10^−7 M P4 (Sigma-Aldrich)±rCCL2 (monocyte chemotactic protein-1; R&D Systems)±STAT1 inhibitor, 5′-methyl-thioadenosine (MTA; EMD Millipore) for 48 or 72 h.
BrdU (Cell Signaling) 1× in 100-μL M231 was added to each well during the final 24 h of incubation. At the end of 48- or 72-h incubation period, medium was removed and the wells washed twice with ice-cold PBS. VSMC proliferation was measured using BrdU cell proliferation Kit (Cell Signaling) at room temperature. Cells was incubated in 100 μL per well of the fixing/denaturing solution for 30 min, and then replaced by 100 μL per well BrdU detection antibody solution for 1 h. Following three rinses with wash buffer, plates were incubated in HRP-conjugated secondary antibody (100 μL per well) for 30 min. After three additional rinses with wash buffer, tetramethylbenzidine substrate solution (100 μL per well) was added for 20 min and the reaction stopped by adding 100 μL per well STOP solution. Absorbance was measured at 450 nm using Spectra Max190 microplate reader (Molecular Devices) to detect BrdU incorporation in each well.

**Q.** With C#C[C@]1(O)CC[C@H]2[C@@H]3CCC4=CC(=O)CC[C@@H]4[C@H]3C(=C)C[C@@]21CC [ETO, etonogestrel] as the molecule, how does the apoptotic index (VSMCs [1]) read?
**A.** unaffected; also recorded: did not affect

**Q.** What about the BrdU incorporation (VSMCs [2]) of the same molecule?
**A.** 0.40±0.03

**Q.** With CC(=O)O[C@]1(C(C)=O)CC[C@H]2[C@@H]3C[C@H](C)C4=CC(=O)CC[C@]4(C)[C@H]3CC[C@@]21C [MPA, medroxyprogesterone acetate] as the molecule, how does the apoptotic index (VSMCs [1]) read?
**A.** did not affect

**Q.** And the apoptotic index (VSMCs [1]; listed as WA)?
**A.** unaffected

**Q.** What about the BrdU incorporation (VSMCs [2]) of the same molecule?
**A.** 0.31±0.02

**Q.** For CC(=O)[C@H]1CC[C@H]2[C@@H]3CCC4=CC(=O)CC[C@]4(C)[C@H]3CC[C@]12C [P4, progesterone], which apoptotic index (VSMCs [1]) is on record?
**A.** unaffected

**Q.** What about the BrdU incorporation (VSMCs [2]) of the same molecule?
**A.** 0.71±0.05
